The target of the experiment is human GLP1R (Homo sapiens, UniProt P43220). As to the kind of experiment: Human GLP1R DERET internalization assay. The experiment is classed as cell-based. The following applies: HEK293-SNAP-hGLP1R-GloSensor cells; for pEC50: top concentration 30 μM; for Emax: relative to GLP1(7-36). The method, then:
Compounds of formula (I) according to the invention were tested in the following cellular assays that measure the intracellular cAMP concentration, beta-arrestin recruitment and receptor internalization. The cAMP is generated by the activation of GLP1R. The extent to which the GLP1R is internalized into the cell and away from the plasma membrane following activation is also shown in Table 2. EC50 for each assay is defined as the concentration of the compound that leads to half of the maximum response (after baseline correction). Emax is defined as the maximum response observed for the test compound, normalized to the maximum response observed for the endogenous ligand (GLP1(7-36)) to GLP1R.
Human GLP1R DERET Internalization Assay
The extent to which agonists internalize the human GLP1R was determined based on an optimized version of a RealTime FRET-based ‘DERET’ (Dissociation Enhanced Resonance Energy Transfer) assay. The technology relies on labeling of the SNAP-tagged GPCR with a SNAP-Lumi-Terbium (donor fluorophore, Cisbio, cat #SSNPTBD). The compounds are incubated with the cells over-expressing the GPCR of interest in the presence of an excess of fluorescein (acceptor fluorophore). When the GPCR is on the cell surface, the donor signal is quenched by the acceptor and the donor/acceptor ratio is low. As the GPCR internalizes, the donor signal is no longer quenched, and the acceptor is no longer excited so the donor/acceptor ratio increases.
HEK293-SNAP-hGLP1R-GloSensor cells (stably overexpressing SNAP-tagged hGLP1R) were seeded overnight in white 384-well poly-D-Lysine coated plates (Greiner Bio One, cat #781945) in regular DMEM growth medium (Gibco, cat #11965-092, 10% heat-inactivated FBS, 10 mM HEPES, 1× penicillin/streptomycin, 0.5 mg/mL geneticin (Gibco, cat #10131-035) and 0.25 mg/mL hygromycin B (Invitrogen, cat #10687010). On the assay day, cell medium was removed and 100 nM SNAP-Lumi-Tb reagent was added in Opti-MEM solution. The cells were incubated at 37° C. for 1 h. Cells were washed using a plate washer in assay buffer [1×HBSS (10× Gibco, cat #14065-056), 20 mM Hepes (Gibco, cat #15630-080), 1 mM CaCl2 (Fluka, cat #21114-1L), 1 mM MgCl2 (Ambion, cat #AM9530G) pH7.4], and 20 μL buffer with 0.1% BSA was added to each well. After leaving cells to equilibrate for […] at 37° C., 10 μL of Fluorescein (sodium salt, Sigma, cat #F6377, diluted in buffer) was added at 25 μM final concentration. To generate triplicate dose response curves, compounds were serially diluted 3-fold in assay buffer, then added to the cell assay plate to a final volume of 40 μL and final top concentrations starting at 30 μM. In the same plate and assay buffer as the tested compounds, a GLP1 (7-36) peptide (Bachem, cat #H-6795) control curve was included at a final top concentration of 1 μM in order to establish EC100. EC0 wells with buffer only were also included. The plate FRET fluorescence was measured immediately using a Perkin Elmer Envision with LANCE/DELFIA D400 single mirror, excitation filter X320, and emission filters M615_203 (donor emission) and M515 (acceptor emission), and then measured every 30 min. […] Plates were kept at 37° C. between reads. Data was expressed as the ratio of donor/acceptor emissions using Microsoft Excel and plotted in GraphPad Prism. In order to determine EC50 and Emax for internalization, data was calculated and expressed as percent of the GLP1 (7-36) EC100 control wells: [(sample signal−mean EC0 signal)/(mean EC100 of GLP1 (7-36) signal−mean EC0 signal)]*100 using Microsoft Excel. Curve fitting for EC50 determinations was performed using GraphPad Prism. The 4-parameter logistic model, Hill slope was used:
where Y is the functional response; X is the compound concentration; bottom is A0 or the minimum value (at 0 dose); top is Ainf or the maximum value (at infinite dose); EC50 is the point of inflection (i.e. the point on the sigmoid shaped curve halfway between A0 and Ainf). […]

Experimental findings from US20250145600A1, “2-((4-((S)-2-(4-CHLORO-2-FLUOROPHENYL)-2-METHYLBENZO[D][1,3]DIOXOL-4-YL)PIPERIDIN-1-YL)METHYL)-1-(((S)-OXETAN-2-YL)METHYL)-1H-IMIDAZOLE DERIVATIVES AS ACTIVATORS OF THE GLP1 RECEPTOR FOR THE TREATMENT OF OBESITY” (Novartis AG, priority 2022, published 2025) are described below.

Each structure is given as a SMILES string. pEC50: −log10 of the molar value. Bounds are passed on as bounds.

human GLP1R, sequence (P43220 24-463): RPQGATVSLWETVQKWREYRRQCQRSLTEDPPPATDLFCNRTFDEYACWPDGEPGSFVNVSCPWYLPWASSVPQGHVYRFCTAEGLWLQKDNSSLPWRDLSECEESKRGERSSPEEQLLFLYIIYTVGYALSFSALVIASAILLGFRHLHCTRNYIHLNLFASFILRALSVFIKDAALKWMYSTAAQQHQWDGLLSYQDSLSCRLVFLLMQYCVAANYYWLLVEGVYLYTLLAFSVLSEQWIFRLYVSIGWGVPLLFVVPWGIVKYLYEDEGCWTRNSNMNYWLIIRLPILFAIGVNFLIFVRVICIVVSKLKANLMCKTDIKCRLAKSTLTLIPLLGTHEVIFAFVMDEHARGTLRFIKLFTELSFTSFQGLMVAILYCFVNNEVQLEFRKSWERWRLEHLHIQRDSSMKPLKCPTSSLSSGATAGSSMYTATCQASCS

As to `Cc1nc(CN2CCC(c3cccc4c3O[C@@](C)(c3ccc(Cl)cc3F)O4)CC2)n(C[C@@H]2CCO2)c1-c1nc(C(=O)O)c(C)o1` [Compound C-1, 2-(2-((4-((S)-2-(4-chloro-2-fluorophenyl)-2-methylbenzo[d][1,3]dioxol-4-yl)piperidin-1-yl)methyl)-4-methyl-1-(((S)-oxetan-2-yl)methyl)-1H-imidazol-5-yl)-5-methyloxazole-4-carboxylic acid], the pEC50 is less than 4.52 and the Emax was determined as 8%.
As for `C[C@]1(c2ccc(Cl)cc2F)Oc2cccc(C3CCN(Cc4nc(C(F)(F)F)c(-c5nc(C(=O)O)co5)n4C[C@@H]4CCO4)CC3)c2O1` [Compound C-4, 2-(2-((4-((S)-2-(4-chloro-2-fluorophenyl)-2-methylbenzo[d][1,3]dioxol-4-yl)piperidin-1-yl)methyl)-1-(((S)-oxetan-2-yl)methyl)-4-(trifluoromethyl)-1H-imidazol-5-yl)oxazole-4-carboxylic acid], the pEC50 is less than 4.52 and the Emax came out at 1%.
On the same counts, the results for `CCc1nc(CN2CCC(c3cccc4c3O[C@@](C)(c3ccc(Cl)cc3F)O4)CC2)n(C[C@@H]2CCO2)c1-c1nc(C(=O)O)co1` [Compound C-5, 2-(2-((4-((S)-2-(4-chloro-2-fluorophenyl)-2-methylbenzo[d][1,3]dioxol-4-yl)piperidin-1-yl)methyl)-4-ethyl-1-(((S)-oxetan-2-yl)methyl)-1H-imidazol-5-yl)oxazole-4-carboxylic acid] are less than 4.52 and 6%.
Compound `CCc1nc(CN2CCC(c3cccc4c3O[C@@](C)(c3ccc(Cl)cc3F)O4)CC2)n(C[C@H]2CCO2)c1-c1nc(C(=O)O)co1` [Compound C-7, 2-(2-((4-((S)-2-(4-chloro-2-fluorophenyl)-2-methylbenzo[d][1,3]dioxol-4-yl)piperidin-1-yl)methyl)-4-ethyl-1-(((R)-oxetan-2-yl)methyl)-1H-imidazol-5-yl)oxazole-4-carboxylic acid] showed a pEC50 of 7.52 and an Emax of 51%.
For `Cc1nc(CN2CCC(c3cccc4c3O[C@@](C)(c3ccc(Cl)cc3F)O4)CC2)n(C[C@@H]2CCO2)c1-c1nc(C(=O)O)co1` [Compound C-9, 2-(2-((4-((S)-2-(4-chloro-2-fluorophenyl)-2-methylbenzo[d][1,3]dioxol-4-yl)piperidin-1-yl)methyl)-4-methyl-1-(((S)-oxetan-2-yl)methyl)-1H-imidazol-5-yl)oxazole-4-carboxylic acid], the pEC50 is less than 4.52 and the Emax amounted to 11%.
As for `CCc1oc(-c2c(C)nc(CN3CCC(c4cccc5c4O[C@@](C)(c4ccc(Cl)cc4F)O5)CC3)n2C[C@@H]2CCO2)nc1C(=O)O` [Compound C-10, 2-(2-((4-((S)-2-(4-chloro-2-fluorophenyl)-2-methylbenzo[d][1,3]dioxol-4-yl)piperidin-1-yl)methyl)-4-methyl-1-(((S)-oxetan-2-yl)methyl)-1H-imidazol-5-yl)-5-ethyloxazole-4-carboxylic acid], the negative-log EC50 (pEC50) was less than 4.52 and the maximal response (Emax) is 7%.
Turning to `Cc1oc(-c2nc(CN3CCC(c4cccc5c4O[C@@](C)(c4ccc(Cl)cc4F)O5)CC3)n(C[C@@H]3CCO3)c2C)nc1C(=O)O` [Compound C-12, 2-(2-((4-((S)-2-(4-chloro-2-fluorophenyl)-2-methylbenzo[d][1,3]dioxol-4-yl)piperidin-1-yl)methyl)-5-methyl-1-(((S)-oxetan-2-yl)methyl)-1H-imidazol-4-yl)-5-methyloxazole-4-carboxylic acid], the pEC50 was less than 4.52 and the Emax is 45%.
`Cc1c(-c2nc(C(=O)O)co2)nc(CN2CCC(c3cccc4c3O[C@@](C)(c3ccc(Cl)cc3F)O4)CC2)n1C[C@@H]1CCO1` [Compound C-13, 2-(2-((4-((S)-2-(4-chloro-2-fluorophenyl)-2-methylbenzo[d][1,3]dioxol-4-yl)piperidin-1-yl)methyl)-5-methyl-1-(((S)-oxetan-2-yl)methyl)-1H-imidazol-4-yl)oxazole-4-carboxylic acid] gave a negative-log EC50 (pEC50) of 5.89 and an Emax of 42%.
`Cc1c(-c2nc(C(F)(F)F)c(C(=O)O)o2)nc(CN2CCC(c3cccc4c3O[C@@](C)(c3ccc(Cl)cc3F)O4)CC2)n1C[C@@H]1CCO1` [Compound C-14, 2-(2-((4-((S)-2-(4-chloro-2-fluorophenyl)-2-methylbenzo[d][1,3]dioxol-4-yl)piperidin-1-yl)methyl)-5-methyl-1-(((S)-oxetan-2-yl)methyl)-1H-imidazol-4-yl)-4-(trifluoromethyl)oxazole-5-carboxylic acid] had a pEC50 of less than 4.52 and an Emax of 20%.
`Cc1c(-c2cnc(C(=O)O)o2)nc(CN2CCC(c3cccc4c3O[C@@](C)(c3ccc(Cl)cc3F)O4)CC2)n1C[C@@H]1CCO1` [Compound C-16, 5-(2-((4-((S)-2-(4-chloro-2-fluorophenyl)-2-methylbenzo[d][1,3]dioxol-4-yl)piperidin-1-yl)methyl)-5-methyl-1-(((S)-oxetan-2-yl)methyl)-1H-imidazol-4-yl)oxazole-2-carboxylic acid]: the pEC50 is 5.53 and the maximal effect (Emax) stood at 50%.
`Cc1c(-c2cc(C(=O)O)n(C)n2)nc(CN2CCC(c3cccc4c3O[C@@](C)(c3ccc(Cl)cc3F)O4)CC2)n1C[C@@H]1CCO1` [Compound C-17, 3-(2-((4-((S)-2-(4-chloro-2-fluorophenyl)-2-methylbenzo[d][1,3]dioxol-4-yl)piperidin-1-yl)methyl)-5-methyl-1-(((S)-oxetan-2-yl)methyl)-1H-imidazol-4-yl)-1-methyl-1H-pyrazole-5-carboxylic acid] gave a pEC50 of less than 4.52 and an Emax of 6%.
On the same counts, the results for `Cc1c(-c2coc(C(=O)O)n2)nc(CN2CCC(c3cccc4c3O[C@@](C)(c3ccc(Cl)cc3F)O4)CC2)n1C[C@@H]1CCO1` [Compound C-18, 4-(2-((4-((S)-2-(4-chloro-2-fluorophenyl)-2-methylbenzo[d][1,3]dioxol-4-yl)piperidin-1-yl)methyl)-5-methyl-1-(((S)-oxetan-2-yl)methyl)-1H-imidazol-4-yl)oxazole-2-carboxylic acid] are 5.62 and 86%.
For the compound `Cc1cc(-c2nc(CN3CCC(c4cccc5c4O[C@@](C)(c4ccc(Cl)cc4F)O5)CC3)n(C[C@@H]3CCO3)c2C)oc1C(=O)O` [Compound C-19, 5-(2-((4-((S)-2-(4-chloro-2-fluorophenyl)-2-methylbenzo[d][1,3]dioxol-4-yl)piperidin-1-yl)methyl)-5-methyl-1-(((S)-oxetan-2-yl)methyl)-1H-imidazol-4-yl)-3-methylfuran-2-carboxylic acid], the negative-log EC50 (pEC50) is less than 4.52 and the maximal response (Emax) amounted to 34%.
As to `Cc1nc(CN2CCC(c3cccc4c3O[C@@](C)(c3ccc(Cl)cc3F)O4)CC2)n(C[C@@H]2CCO2)c1-c1coc(C(=O)O)n1` [Compound C-20, 4-(2-((4-((S)-2-(4-chloro-2-fluorophenyl)-2-methylbenzo[d][1,3]dioxol-4-yl)piperidin-1-yl)methyl)-4-methyl-1-(((S)-oxetan-2-yl)methyl)-1H-imidazol-5-yl)oxazole-2-carboxylic acid], the negative logarithm of the EC50 (pEC50) is less than 4.52 and the Emax stood at 5%.
